Counter-ions that a name gives are not always drawn.
Key:
human H3 receptor = molecular target: T1, human H3 receptor (Homo sapiens, UniProt Q9Y5N1); assay: Human H3 radioligand binding ([3H]-N-alpha-methylhistamine, CHO cell membranes); details: membranes of CHO cells stably expressing the human H3 receptor; [3H]-N-alpha-methylhistamine approx. 1 nM
T1 construct: expressed in transfected cells
Description: Methods: CHO cells stably expressing the human H3 receptor (GenBank: NM_007232) were harvested and cell pellets were frozen (—80° C.). Cell pellets were resuspended in 5 mM Tris-HCl, pH 7.5 with […] and a cocktail of protease inhibitors (Complete Protease Inhibitior Tablets, Roche Diagnostics). Cells were disrupted using a polytron cell homogenizer and the suspension was centrifuged at 1000×g for 10 minutes at 4° C. The pellet was discarded and the supernatant centrifuged at 40,000×g for 30 min at 4° C. This membrane pellet was washed in membrane buffer containing 50 mM Tris-HCl, pH 7.5 with 0.6 mM EDTA, 5 mM MgCl2 and protease inhibitors, recentrifuged as above and the final pellet resuspended in membrane buffer plus 250 mM sucrose and frozen at −80° C.
Radioligand Binding. Membranes were resuspended in 50 mM Tris HCl (pH 7.4), 5 mM MgCl2, 0.1% BSA. The membrane suspensions (10 μg protein per well) were incubated in a 96 well microtiter plate with [^3H]-N-alpha-methylhistamine (approximately 1 nM final concentration), test compounds at various concentrations (0.01 nM-30 μM) and scintillation proximity beads (Perkin Elmer, FlashBlueGPCR Scintillating Beads) in a final volume of 80 μl for 4 hours at room temperature, protected from light. Non-specific binding was determined in the presence of 10 μM clobenpropit. Radioligand bound to receptor, and therefore in proximity to the scintillation beads, was measured using a MicroBeta scintillation counter.

T1 sequence (Q9Y5N1 whole entry): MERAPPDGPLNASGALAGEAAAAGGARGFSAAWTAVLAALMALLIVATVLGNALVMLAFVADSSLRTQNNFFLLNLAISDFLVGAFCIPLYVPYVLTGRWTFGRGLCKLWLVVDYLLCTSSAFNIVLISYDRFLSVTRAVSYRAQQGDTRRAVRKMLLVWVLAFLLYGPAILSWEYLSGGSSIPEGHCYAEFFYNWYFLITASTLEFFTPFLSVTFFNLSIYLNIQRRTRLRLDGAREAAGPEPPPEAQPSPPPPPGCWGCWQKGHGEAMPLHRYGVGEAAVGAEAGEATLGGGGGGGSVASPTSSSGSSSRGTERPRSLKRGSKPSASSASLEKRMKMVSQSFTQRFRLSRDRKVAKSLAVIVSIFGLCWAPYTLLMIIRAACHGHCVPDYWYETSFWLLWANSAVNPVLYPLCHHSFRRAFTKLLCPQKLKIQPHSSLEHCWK

Structure (SMILES)	melting point	Ki (human H3 receptor)
COc1cc(-c2ccc(Cl)nn2)ccc1OCCCN1CCC[C@H]1C [Example 10, 3-Chloro-6-{3-methoxy-4-[3-((R)-2-methyl-pyrrolidin-1-yl)propoxy}phenyl}pyridazine]	122 °C	> 0.101 µM
Clc1nnc(-c2ccc(OCCCN3CCCCC3)cc2)c2c1CCC2 [Example 15, 1-Chloro-4-[4-(3-piperidin-1-yl-propoxy)-phenyl]-6,7-dihydro-5H-cyclopenta[d]pyridazine]	120 °C	< 0.05 µM
C[C@@H]1CCCN1CCCOc1ccc(-c2ccc(OCc3ccc(F)cc3)nn2)cc1 [Example 26, 3-(4-Fluoro-benzyloxy)-6-{4-[3-((R)-2methyl-pyrrolidin-1-yl)-propoxy]phenyl}pyridazine]	118 °C	< 0.05 µM
C[C@@H]1CCCN1CCCOc1ccc(-c2ccc([S+]([O-])Cc3ccccc3)nn2)cc1 (stereo partly drawn) [Example 35, 3-{4-[3-((R)-2-Methylpyrrolidin-1-yl)propoxy]phenyl}-6-phenylmethanesulfinyl-pyridazine]	–	< 0.05 µM
C[C@@H]1CCCN1CCCOc1ccc(-c2ccc(OCc3ccc(C(F)(F)F)cc3)nn2)cc1 [Example 27, 3-{4-[3-((R)-2-Methyl-pyrrolidin-1-yl)-propoxy]-phenyl}-6-(4-trifluoromethyl-benzyloxy)pyridazine]	160 °C	< 0.05 µM
CNc1ccc(-c2ccc(OCCCN3CCC[C@H]3C)cc2)nn1 [Example 8, Methyl-(6-{4-[3-((R)-2-methyl-pyrrolidin-1-yl)-propoxy]phenyl}pyridazin-3-yl)amine]	126 to 129 °C	< 0.05 µM
C[C@@H]1CCCN1CCCOc1ccc(-c2ccc(SCc3ccccc3)nn2)cc1 [Example 33, 3-Benzylsulfanyl-6-{4-[3-((R)-2-methyl-pyrrolidin-1-yl)-propoxy]phenyl}pyridazine]	104 °C	< 0.05 µM
Cc1ccc(-c2ccc(OCCCN3CCC[C@H]3C)cc2)nn1 [Example 3, 3-Methyl-6-{4-[3-((R)-2-methyl-pyrrolidin-1-yl)-propoxy]-phenyl}pyridazine]	–	< 0.05 µM
COc1cc(-c2ccc(Cl)nn2)ccc1OCCCN1CCCCC1 [Example 11, 3-Chloro-6-[3-methoxy-4-(3-piperidin-1-yl-propoxy)phenyl]pyridazine]	120 °C	> 0.101 µM
Cc1cc(OCCCN2CCCCC2)ccc1-c1ccc(Cl)nn1 [Example 12, 3-Chloro-6-[2-methyl-4-(3-piperidin-1-yl-propoxy)phenyl]pyridazine]	85 °C	< 0.05 µM
CSc1ccc(-c2ccc(OCCCN3CCC[C@H]3C)cc2)nn1 [Example 30]	101 °C	< 0.05 µM
C[C@@H]1CCCN1CCCOc1ccc(-c2ccc(OCc3ccccc3)nn2)cc1 [Example 21, 3-Benzyloxy-6-{4-[3-((R)-2-methyl-pyrrolidin-1-yl)-propoxy]phenyl}pyridazine]	114 °C	< 0.05 µM
C[C@H](COc1ccc(-c2ccc(Cl)nn2)cc1)CN1CCC[C@H]1C [Example 43, 3-Chloro-6-{4-[(S)-2-methyl-3-((R)-2-methylpyrrolidin-1-yl)propoxy]-phenyl}pyridazine]	–	< 0.05 µM
COc1nnc(-c2ccc(OCCCN3CCC[C@H]3C)cc2)c2c1CCC2 [Example 39, 1-Methoxy-4-{4-[3-((R)-2-methylpyrrolidin-1-yl)-propoxy]-phenyl}6,7-dihydro-5H-cyclopenta[d]pyridazine]	109 °C	< 0.05 µM
C[C@@H]1CCCN1CCCOc1ccc(-c2ccc(NCc3ccccc3)nn2)cc1 [Example 29, Benzyl-(6-{4-[3-((R)-2-methyl-pyrrolidin-1-yl)-propoxy]-phenyl}-pyridazin-3-yl)amine]	139.5 to 141 °C	< 0.05 µM
C[C@@H]1CCCN1CCCOc1ccc(-c2nnc(SCc3ccccc3)c3c2CCC3)cc1 [Example 42, 1-Benzylsulfanyl-4-{4-[3-((R)-2-methyl-pyrrolidin-1-yl)propoxy]-phenyl}-6,7-dihydro-5H-cyclopenta[d]pyridazine]	122 °C	< 0.05 µM
CC(C)Oc1ccc(-c2ccc(OCCCN3CCC[C@H]3C)cc2)nn1 [Example 24]	75 °C	< 0.05 µM
CC1CCCCN1C[C@H](C)COc1ccc(-c2ccc(Cl)nn2)cc1 (stereo partly drawn) [Example 44, 3-Chloro-6-{4-[(S)-2-methyl-3-(2-methylpiperidin-1-yl)propoxy]-phenyl}pyridazine]	108 to 110 °C	> 0.101 µM
COc1ccc(-c2ccc(OCCCN3CCCCC3)cc2)nn1 [Example 23]	116 °C	< 0.05 µM

Structure (SMILES)	melting point	Ki (human H3 receptor)
COc1ccc(-c2ccc(OCCCN3CCC[C@H]3C)cc2)nn1 [Example 22]	121 °C	< 0.05 µM
O=S(=O)(Cc1ccccc1)c1ccc(-c2ccc(OCCCN3CCCCC3)cc2)nn1 [Example 38, 3-Phenylmethanesulfonyl-6-[4-(3-piperidin-1-yl-propoxy)phenyl]pyridazine]	134 °C	< 0.05 µM
C[C@@H]1CCCN1CCCOc1ccc(-c2ccc(-c3cc4ccccc4o3)nn2)cc1 [Example 41, 3-Benzofuran-2-yl-6-{4-[3-((R)-2-methyl-pyrrolidin-1-yl)-propoxy]-phenyl}pyridazine]	180 °C	< 0.05 µM
C[C@@H]1CCCN1CCCOc1ccc(-c2nnc(Cl)c3c2C2CCC3CC2)cc1 [Example 18, 3-Chloro-6-{4-[3-((R)-2-methyl-pyrrolidin-1-yl)-propoxy]-phenyl}-4,5-diaza-tricyclo[6.2.2.0*2,7*]dodeca-2(7),3,5-triene]	132 to 134 °C	< 0.05 µM
C[C@@H]1CCCN1CCCOc1ccc(-c2cccnn2)cc1 [Example 45, 3-{4-[3-((R)-2-Methyl-pyrrolidin-1-yl)-propoxy]-phenyl}-pyridazine]	–	< 0.05 µM
Clc1ccc(-c2ccc(OCCCN3CCCCC3)cc2)nn1 [Example 2, 3-Chloro-6-[4-(3-piperidin-1-yl-propoxy)-phenyl]pyridazine]	140 °C	< 0.05 µM
C[C@@H]1CCCN1CCCOc1ccc(-c2ccc(N3CCCC3)nn2)cc1 [Example 5, 3-{4-[3-((R)-2-Methyl-pyrrolidin-1-yl)-propoxy]-phenyl}-6-pyrrolidin-1-yl-pyridazine]	175 to 180 °C	< 0.05 µM
C[C@@H]1CCCN1CCCOc1ccc(-c2ccc(-c3ccccc3)nn2)cc1 [Example 4, 3-{4-[3-((R)-2-Methyl-pyrrolidin-1-yl)-propoxy]-phenyl}-6-phenylpyridazine]	158 to 160 °C	< 0.05 µM
C[C@@H]1CCCN1CCCOc1ccc(-c2ccc(N)nn2)cc1 [Example 7, 6-{4-[3-((R)-2-Methyl-pyrrolidin-1-yl)-propoxy]-phenyl}pyridazin-3-ylamine]	121 to 122 °C	< 0.05 µM
CCNc1ccc(-c2ccc(OCCCN3CCC[C@H]3C)cc2)nn1 [Example 28, Ethyl-(6-{4-[3-((R)-2-methyl-pyrrolidin-1-yl)-propoxy]-phenyl}pyridazin-3-yl)amine]	–	< 0.05 µM
c1ccc(Oc2ccc(-c3ccc(OCCCN4CCCCC4)cc3)nn2)cc1 [Example 25, 3-Phenoxy-6-[4-(3-piperidin-1-yl-propoxy)phenyl]pyridazine]	139 °C	< 0.05 µM
N#Cc1cc(-c2ccc(Cl)nn2)ccc1OCCCN1CCCCC1 [Example 14, 5-(6-Chloro-pyridazin-3-yl)-2-(3-piperidin-1-yl-propoxy)benzonitrile]	140 to 142 °C	> 0.101 µM
C[C@@H]1CCCN1CCCOc1ccc(-c2ccc(S(=O)(=O)Cc3ccccc3)nn2)cc1 [Example 37, 3-{4-[3-((R)-2-Methyl-pyrrolidin-1-yl)-propoxy]phenyl}-6-phenylmethanesulfonyl-pyridazine]	–	< 0.05 µM
c1ccc(COc2ccc(-c3ccc(OCCCN4CCCCC4)cc3)nn2)cc1 [Example 20, 3-Benzyloxy-6-[4-(3-piperidin-1-yl-propoxy)phenyl]pyridazine]	–	< 0.05 µM
C[C@@H]1CCCN1CCCOc1ccc(-c2cccnn2)cc1 (as salt: HCl) [Example 45, 3-{4-[3-((R)-2-Methyl-pyrrolidin-1-yl)-propoxy]-phenyl}-pyridazine]	198 to 201 °C	–
CSc1nnc(-c2ccc(OCCCN3CCC[C@H]3C)cc2)c2c1CCC2 [Example 32, 1-{4-[3-((R)-2-Methyl-pyrrolodin-1-yl)-propoxy]-phenyl}-4-methylsulfanyl-6,7-dihydro-5H-cyclopenta[d]pyridazine]	–	< 0.05 µM
C[C@@H]1CCCN1CCCOc1ccc(-c2ccc(N3CCOCC3)nn2)cc1 [Example 6, 4-(6-{4-[3-((R)-2-Methylpyrrolidin-1-yl)-propoxy]phenyl}pyridazin-3-yl)morpholine]	–	< 0.05 µM
C[C@@H]1CCCN1CCCOc1ccc(-c2ccc(Cl)nn2)cc1 [Example 1, 3-Chloro-6-{4-[3-((R)-2-methyl-pyrrolidin-1-yl)propoxy]-phenyl}pyridazine]	–	< 0.05 µM
